In PubChem BioAssay AID1996:
In brackets after ≈: the same amount, converted by molar mass.

details: buffer; pH 7.4; 200.0 µM

Row | Compound | solubility kinetic
1 | CCOc1ccc(-c2cnc3n2CCCCC3)cc1 | 32 µg/mL (≈ 125 µM)
2 | CCOc1ccccc1C1NC(=O)c2ccccc2O1 (centres undefined) | 35.2 µg/mL (≈ 131 µM)
3 | COc1ccc(CNC(=O)c2cc(S(=O)(=O)N3CCCCC3)ccc2Cl)cc1OC | 3.1 µg/mL (≈ 6.84 µM)
4 | CCOc1cc(C(=O)OC(C(=O)NC(=O)NC)c2ccccc2)ccc1OCC(=O)N1CCOCC1 (centres undefined) | 11.4 µg/mL (≈ 22.8 µM)
5 | CC1CC(C)CN(C(=O)c2ccc3ccccc3c2)C1 (centres undefined) | 33.3 µg/mL (≈ 125 µM)
6 | CCOC(=O)C1(Cc2ccccc2)CCCN(C2CCCC2)C1 (centres undefined) | > 47.3 µg/mL
7 | CCN(CC(=O)NCCN1CCOCC1)S(=O)(=O)c1ccc(F)cc1 | > 56 µg/mL
8 | S=C(Nc1cccc(Cl)c1)N1CCN(c2ccccn2)CC1 | 0.5 µg/mL (≈ 1.5 µM)
9 | CCC(NC(=O)Nc1cc(C)on1)(C(F)(F)F)C(F)(F)F | 14.6 µg/mL (≈ 45.7 µM)
10 | CC1(C)CC(=O)C(C=Nc2ccc(N)cc2)=C(O)C1 | > 38.7 µg/mL
11 | CCOC(=O)CN=C/C(C(C)=O)=C(/C)O | > 32 µg/mL
12 | O=S(=O)(Nc1ccc2c(c1)OCCO2)c1ccc(F)c(F)c1 | > 49.1 µg/mL
13 | CC1=C(C(N)=O)C(c2cccs2)NC(=O)N1 (centres undefined) | > 35.6 µg/mL
14 | Cc1cc(NC(=O)Cc2ccsc2)ccc1Br | 4.5 µg/mL (≈ 14.5 µM)
15 | CC(=O)/C=C\c1ccc(OC(=O)c2cccnc2)cc1 | 39.6 µg/mL (≈ 148 µM)
16 | CN(CCC#N)C(=O)c1cc2c(s1)-c1ccccc1SC2 | 24.9 µg/mL (≈ 79.2 µM)
17 | COC(=O)Cc1c(O)ccn(CCc2c[nH]c3ccccc23)c1=O | > 49 µg/mL
18 | Cc1nc2ccccc2c(=O)n1-c1ccc(Cl)c(Cl)c1 | 44 µg/mL (≈ 144 µM)
19 | COc1nccc(C(F)(F)F)c1C(=O)NC(=O)Nc1ccccc1 | 11.5 µg/mL (≈ 33.9 µM)
20 | C/C(=N/OC(=O)C1CC1)c1cc(-c2ccc(Cl)cc2)no1 | 0.4 µg/mL (≈ 1.31 µM)
21 | O=C(Cc1ccccc1)NCC(=O)OCC(=O)c1ccc(F)cc1 | > 49.4 µg/mL

Row | Compound | solubility kinetic
22 | CC1CCCN(S(=O)(=O)c2cccc3nonc23)C1 (centres undefined) | 13.2 µg/mL (≈ 46.9 µM)
23 | COc1ccc(Cl)cc1C(=O)NCc1ccco1 | 31.8 µg/mL (≈ 120 µM)
24 | Cc1c(-c2cccc(Cl)c2)nc2ccccc2c1C(=O)NC1CC1 | > 50.5 µg/mL
25 | CCOC(=O)C1CCCN(C(=O)c2ccc(Cl)cc2)C1 (centres undefined) | > 44.4 µg/mL
26 | Cc1ccsc1C(=O)NNC(=S)NC1CCCCC1 | > 44.6 µg/mL
27 | CC(=O)Nc1ccc(S(=O)(=O)N2CCSc3ccccc32)cc1 | 49.6 µg/mL (≈ 142 µM)
28 | OCC(O)C1OC(Nc2ccc(Cl)cc2)C(O)C1O (centres undefined) | > 43.5 µg/mL
29 | O=C(O)c1ccccc1C(=O)Nc1ccc(Oc2cccc(C(F)(F)F)c2)nc1 | 60.2 µg/mL (≈ 150 µM)
30 | CC(OC(=O)c1cccc([N+](=O)[O-])c1)C(=O)NCc1ccc2c(c1)OCO2 (centres undefined) | 22.4 µg/mL (≈ 60.2 µM)
31 | CCc1noc(C)c1C(=O)OCC(=O)c1ccc(OC)c(OC)c1 | 46 µg/mL (≈ 138 µM)
32 | CC(=O)c1c(C)[nH]c(=S)c(C#N)c1-c1ccc(Cl)cc1 | > 45.4 µg/mL
33 | O=C(c1ccc(F)cc1)C1CCN(C(=O)c2ccc(F)cc2)CC1 | > 49.4 µg/mL
34 | O=C(Nc1nccs1)c1cc([N+](=O)[O-])ccc1Cl | 3.7 µg/mL (≈ 13 µM)
35 | COc1ccc(C(=O)c2cnc[nH]2)cc1OC | 33 µg/mL (≈ 142 µM)
36 | O=C(CN1CCN(c2ccc(F)cc2)CC1)NCc1ccc(Cl)cc1 | 51.2 µg/mL (≈ 141 µM)
37 | CC(CN1CCCC1)OC(=O)c1ccc(F)cc1.Cl (centres undefined) | > 43.2 µg/mL
38 | O=C(COC(=O)c1cnccn1)Nc1cc(S(=O)(=O)N2CCOCC2)ccc1Cl | > 66.1 µg/mL
39 | CC(C)c1ccc(CNc2ccc3c(c2)ncn3C)cc1 | 22 µg/mL (≈ 78.7 µM)
40 | NS(=O)(=O)c1cc2c(cc1C(F)(F)F)NCNS2(=O)=O | > 49.7 µg/mL
41 | COC(=O)c1ccc(CSCC(=O)Nc2ccccc2)cc1 | > 47.3 µg/mL
42 | CCCNc1c(N)c(=O)c1=O | > 23.1 µg/mL

Row | Compound | solubility kinetic
43 | O=C(Nc1ccccc1)NC1CCCCNC1=O (centres undefined) | > 37.1 µg/mL
44 | CCc1cc2c(SC(C)C(=O)NC3CCCC3)ncnc2s1 (centres undefined) | 34.4 µg/mL (≈ 103 µM)
45 | COc1ccc(NC(=O)COC(=O)CCc2ccc(S(=O)(=O)N3CCOCC3)cc2)cc1OC | 62 µg/mL (≈ 126 µM)
46 | CCOC(=O)N1CCN(c2cc(=O)n(C)c(=O)n2C)CC1 | > 44.4 µg/mL
47 | COc1cc(/C=C/C(=O)O)cc(S(=O)(=O)Nc2cc(C(F)(F)F)ccc2N2CCOCC2)c1OC | > 77.5 µg/mL
48 | Cc1onc(-c2c(F)cccc2Cl)c1C(=O)N=C(N)N1CC(C)OC(C)C1 (centres undefined) | 0.8 µg/mL (≈ 2.03 µM)
49 | CC(NC(=O)C1=CC=CN2CCS(=O)(=O)N=C12)c1ccc(Cl)c(Cl)c1 (centres undefined) | > 60 µg/mL
50 | Cc1sc2ncnc(SCC(=O)Nc3ccc(S(=O)(=O)N4CCOCC4)cc3)c2c1C | 5.4 µg/mL (≈ 11.3 µM)
51 | O=C(Nc1ccc(CN2CCOCC2)cc1)c1ccc(Cl)cc1Cl | 19.9 µg/mL (≈ 54.5 µM)
52 | COc1ccc(CCNc2c([N+](=O)[O-])ncn2C)cc1OC | 45.8 µg/mL (≈ 150 µM)
53 | CCOCC(=O)N1CCN(Cc2ccc3c(c2)OCO3)CC1 | > 46 µg/mL
54 | CCOC(=O)C1CCCN(CCC(=O)Nc2ccccc2C)C1.Cl (centres undefined) | > 53.2 µg/mL
55 | Cc1nn(CC(=O)NC2(C#N)CCCCC2)c(C)c1[N+](=O)[O-] | > 45.8 µg/mL
56 | Cc1cccc(OCCCCn2c(CO)nc3ccccc32)c1 | 31.4 µg/mL (≈ 101 µM)
57 | O=C(CN1C(=O)NC2(CCCCC2)C1=O)NCCc1ccccc1 | > 49.4 µg/mL
58 | O=C(Nc1cccc([N+](=O)[O-])c1)c1ccc2nsnc2c1 | 1.9 µg/mL (≈ 6.33 µM)
59 | O=C(CNC(=O)c1ccccc1F)Nc1ccc2c(c1)OCO2 | 23.2 µg/mL (≈ 73.4 µM)
60 | CCOC(=O)N1CCN(C(=O)c2ccc(OC)cc2)CC1 | > 43.9 µg/mL
61 | N[C@H]1CONC1=O | > 15.3 µg/mL
62 | CC(OC(=O)c1nsc(Cl)c1Cl)C(=O)NC1CCCCC1 (centres undefined) | 31.6 µg/mL (≈ 90 µM)
63 | Cc1ccc(CN2CCN(c3cccc4[nH]ccc34)CC2)cc1 | 41.2 µg/mL (≈ 135 µM)

Row | Compound | solubility kinetic
64 | CC1CC(C)CN(C(=O)COc2cccnc2[N+](=O)[O-])C1 (centres undefined) | > 44 µg/mL
65 | CCN(CC(=O)Nc1ccccc1OC)C(=O)CC1CC2CCC1C2 (centres undefined) | > 51.7 µg/mL
66 | CC(C)C(=O)NCC(c1ccc2c(c1)OCO2)N1CCOCC1 (centres undefined) | > 48.1 µg/mL
67 | CCOC(=O)c1c(N)c2cc([N+](=O)[O-])cnc2n1C | 1.9 µg/mL (≈ 7.19 µM)
68 | Cc1ccc(S(=O)(=O)N2CCN(C(=O)N3CCCC3)CC2)cc1 | 48.7 µg/mL (≈ 144 µM)
69 | Cc1ccc(NC(=O)CSc2nc(C)c(Cc3ccccc3)c(=O)[nH]2)cc1 | 1.4 µg/mL (≈ 3.69 µM)
70 | CC(NC(=O)OCc1ccccc1)c1ccccc1 (centres undefined) | > 38.3 µg/mL
71 | CN(C)C(=O)c1coc2nc3ccccc3nc12 | 4 µg/mL (≈ 16.6 µM)
72 | Cc1ccc2nc3c(nc2c1C)C(O)=C3O | 24.7 µg/mL (≈ 115 µM)
73 | Cc1ccc(S(=O)(=O)CC(=O)Nc2ccc(F)c(F)c2F)cc1 | 4.8 µg/mL (≈ 14 µM)
74 | CC(=O)C1=C(O)C(=O)N(Cc2ccccc2)C1c1ccc(N(C)C)cc1 (centres undefined) | 51.6 µg/mL (≈ 147 µM)
75 | NS(=O)(=O)c1ccc(CCNC(=O)Cc2cccs2)cc1 | 31.8 µg/mL (≈ 98 µM)
76 | N#CCCN(C(=O)COC(=O)CCC(=O)c1cccs1)c1ccccc1 | > 55.6 µg/mL
77 | CC/C(O)=C1\C(=O)CC(C)(C)CC1=NCCc1nc2ccccc2[nH]1 | > 50.9 µg/mL
78 | CCOc1cc(N2CCOCC2)c(OCC)cc1NC(=O)Cn1cnnn1 | > 56.5 µg/mL
79 | CN1CCCN(C(=O)COc2cccc(C(F)(F)F)c2)CC1 | > 47.4 µg/mL
80 | CCOc1ccc(C(=O)N(CN2CCCC2=O)c2cccc(Cl)c2)cc1 | > 55.9 µg/mL
81 | NC(=O)C[n+]1cccc(/C=N/O)c1.[Cl-] | > 32.3 µg/mL
82 | O=C(Nc1ccccc1)Nc1ccc(C(F)(F)F)cn1 | 0.2 µg/mL (≈ 0.711 µM)
83 | Cc1ccc(NC(=O)CC2SCCNC2=O)cc1[N+](=O)[O-] (centres undefined) | 36.2 µg/mL (≈ 117 µM)
84 | CN(C(=O)CCc1nc2ccccc2c(=O)[nH]1)C1CCS(=O)(=O)C1 (centres undefined) | > 52.4 µg/mL
